We go through eleven compounds from patent US20240398828A1, “HETERO-ATOM CONTAINING COMPOUNDS AND USES THEREOF” (Kumquat Biosciences Inc., priority 2021, published 2024).

The target in one assay is T1, PTPN1 (i.e., PTP1B) (Homo sapiens, UniProt P18031).
T1 sequence (P18031 1-435): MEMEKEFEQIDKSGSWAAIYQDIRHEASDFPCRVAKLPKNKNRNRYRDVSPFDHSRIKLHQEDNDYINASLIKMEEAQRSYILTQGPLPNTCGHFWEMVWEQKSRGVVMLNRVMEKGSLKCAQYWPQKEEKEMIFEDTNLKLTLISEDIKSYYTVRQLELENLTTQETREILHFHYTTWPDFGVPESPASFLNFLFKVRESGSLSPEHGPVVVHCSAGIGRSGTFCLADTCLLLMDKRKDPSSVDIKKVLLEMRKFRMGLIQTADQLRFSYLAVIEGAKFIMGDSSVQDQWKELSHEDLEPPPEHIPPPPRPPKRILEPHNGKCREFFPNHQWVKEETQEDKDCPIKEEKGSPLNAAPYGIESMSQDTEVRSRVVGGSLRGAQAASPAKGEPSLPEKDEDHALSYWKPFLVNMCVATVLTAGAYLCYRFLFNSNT
The experiment in a line: Phosphatase activity assay (DiFMUP substrate), PTP1B. In kind it is biochemical. To be noted: compounds binned ≤1 uM or >1 uM. The method, boiled down:
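RT, HEPES pH 7.5 buffer with DTT/Tween-20. 10-point inhibitor series premixed ~2 min with enzyme (PTPN2 0.025 ng/ul). Start with DiFMUP at enzyme Km (~45 μM for PTPN2). Read DiFMU ex360/em450 continuously 15–30 min; initial rate vs concentration, 4-parameter fit → IC50.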

A further assay has as its target T2, PTPN2 (i.e., TC-PTP) (Homo sapiens, UniProt P17706).
T2 sequence (P17706 1-415): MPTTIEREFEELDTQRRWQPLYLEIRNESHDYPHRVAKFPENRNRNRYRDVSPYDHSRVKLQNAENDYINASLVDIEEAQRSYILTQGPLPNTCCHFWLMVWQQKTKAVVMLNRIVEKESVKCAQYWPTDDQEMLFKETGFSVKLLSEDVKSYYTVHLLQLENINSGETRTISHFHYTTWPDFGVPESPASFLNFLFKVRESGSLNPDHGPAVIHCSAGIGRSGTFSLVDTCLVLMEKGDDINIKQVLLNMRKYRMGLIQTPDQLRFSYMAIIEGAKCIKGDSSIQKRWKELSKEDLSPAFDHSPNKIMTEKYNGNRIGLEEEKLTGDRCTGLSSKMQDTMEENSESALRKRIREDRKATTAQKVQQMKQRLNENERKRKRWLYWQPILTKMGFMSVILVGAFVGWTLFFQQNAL
The experiment in a line: Phosphatase activity assay (DiFMUP substrate), PTPN2. In kind it is biochemical. To be noted: compounds binned ≤1 uM or >1 uM. The method, boiled down: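 Read-out is continuous fluorescence of DiFMU (360 nm excitation, 450 nm emission) over about 15-30 minutes, with DiFMUP substrate at the enzyme's independently determined Km (PTPN2 approx. 45 μM final). Buffer: 50 mM HEPES pH 7.5, 150 mM NaCl, 0.5 mM EDTA, 1 mM DTT, 0.001% Tween-20, room temperature; initial rates versus 10-point dilution fitted for IC50, at least duplicate.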

pIC50: −log10 of the molar value. Where only a bound is given, the exact number is not on record here.

What is called pIC50 is −log10 of the IC50, conventionally taken in molar units. As for `Cn1nc(-c2ccc(O)c(N3CC(=O)NS3(=O)=O)c2F)cc1CCC#N` [Compound 432, 3-(3-(3-(1,1-dioxido-4-oxo-1,2,5-thiadiazolidin-2-yl)-2-fluoro-4-hydroxyphenyl)-1-methyl-1H-pyrazol-5-yl)propanenitrile], the negative-log IC50 (pIC50) on PTPN1 (i.e., PTP1B) is ≥ 6.00; at PTPN2 (i.e., TC-PTP), ≥ 6.00.

As for `N#Cc1cc(F)cc(-n2cnc(-c3ccc(O)c(N4CC(=O)NS4(=O)=O)c3F)c2)c1` [Compound 433, 3-(4-(3-(1,1-dioxido-4-oxo-1,2,5-thiadiazolidin-2-yl)-2-fluoro-4-hydroxyphenyl)-1H-imidazol-1-yl)-5-fluorobenzonitrile], the pIC50 on PTPN1 (i.e., PTP1B) was ≥ 6.00; at PTPN2 (i.e., TC-PTP), ≥ 6.00.

`O=C1CN(c2c(O)ccc(-c3cc(C#Cc4cccnc4)n[nH]3)c2F)S(=O)(=O)N1` [Compound 434, 5-(2-fluoro-6-hydroxy-3-(3-(pyridin-3-ylethynyl)-1H-pyrazol-5-yl)phenyl)-1,2,5-thiadiazolidin-3-one 1,1-dioxide]: the pIC50 is ≥ 6.00 on PTPN1 (i.e., PTP1B) and ≥ 6.00 on PTPN2 (i.e., TC-PTP).

For the compound `O=C1CN(c2c(O)ccc(-c3cc(C4CC4)n(CC(F)F)n3)c2F)S(=O)(=O)N1` [Compound 435, 5-(3-(5-cyclopropyl-1-(2,2-difluoroethyl)-1H-pyrazol-3-yl)-2-fluoro-6-hydroxyphenyl)-1,2,5-thiadiazolidin-3-one 1,1-dioxide], the pIC50 on PTPN1 (i.e., PTP1B) is ≥ 6.00; on PTPN2 (i.e., TC-PTP) it was ≥ 6.00.

For `CC(C)CNCc1cc(-c2ccc(O)c(N3CC(=O)NS3(=O)=O)c2F)[nH]n1` [Compound 436, 5-(2-fluoro-6-hydroxy-3-(3-((isobutylamino)methyl)-1H-pyrazol-5-yl)phenyl)-1,2,5-thiadiazolidin-3-one 1,1-dioxide], the negative logarithm of the IC50 (pIC50) at PTPN1 (i.e., PTP1B) was ≥ 6.00; on PTPN2 (i.e., TC-PTP), ≥ 6.00.

For `O=C1CN(c2c(O)ccc(-c3cn(-c4ccccc4F)cn3)c2F)S(=O)(=O)N1` [Compound 437, 5-(2-fluoro-3-(1-(2-fluorophenyl)-1H-imidazol-4-yl)-6-hydroxyphenyl)-1,2,5-thiadiazolidin-3-one 1,1-dioxide], the pIC50 at PTPN1 (i.e., PTP1B) was ≥ 6.00; at PTPN2 (i.e., TC-PTP), ≥ 6.00.

Regarding `O=C1CN(c2c(O)ccc(-c3ccc(NS(=O)(=O)C4CC4)cc3F)c2F)S(=O)(=O)N1` [Compound 438, N-(3′-(1,1-dioxido-4-oxo-1,2,5-thiadiazolidin-2-yl)-2,2′-difluoro-4′-hydroxy-[1,1′-biphenyl]-4-yl)cyclopropanesulfonamide], the pIC50 at PTPN1 (i.e., PTP1B) was ≥ 6.00; on PTPN2 (i.e., TC-PTP), ≥ 6.00.

For the compound `N#Cc1cc(-c2ccc(O)c(N3CC(=O)NS3(=O)=O)c2F)[nH]n1` [Compound 439, 5-(3-(1,1-dioxido-4-oxo-1,2,5-thiadiazolidin-2-yl)-2-fluoro-4-hydroxyphenyl)-1H-pyrazole-3-carbonitrile], the negative logarithm of the IC50 (pIC50) on PTPN1 (i.e., PTP1B) was ≥ 6.00; on PTPN2 (i.e., TC-PTP), ≥ 6.00.

Consider `O=C1CN(c2c(O)ccc(-c3cn(C4CC4)nc3F)c2F)S(=O)(=O)N1` [Compound 440, 5-(3-(1-cyclopropyl-3-fluoro-1H-pyrazol-4-yl)-2-fluoro-6-hydroxyphenyl)-1,2,5-thiadiazolidin-3-one 1,1-dioxide], for which the pIC50 at PTPN1 (i.e., PTP1B) was ≥ 6.00; at PTPN2 (i.e., TC-PTP), ≥ 6.00.

`N#CC1(c2cc(-c3ccc(O)c(N4CC(=O)NS4(=O)=O)c3F)[nH]n2)CC1` [Compound 441, 1-(5-(3-(1,1-dioxido-4-oxo-1,2,5-thiadiazolidin-2-yl)-2-fluoro-4-hydroxyphenyl)-1H-pyrazol-3-yl)cyclopropane-1-carbonitrile]: the pIC50 was ≥ 6.00 at PTPN1 (i.e., PTP1B) and ≥ 6.00 on PTPN2 (i.e., TC-PTP).

Regarding `CN1CC2(CCC(n3cc(-c4ccc(O)c(N5CC(=O)NS5(=O)=O)c4F)cn3)C2)C1` (stereo not shown) [Compound 442, 5-(2-fluoro-6-hydroxy-3-(1-(2-methyl-2-azaspiro[3.4]octan-6-yl)-1H-pyrazol-4-yl)phenyl)-1,2,5-thiadiazolidin-3-one 1,1-dioxide], the pIC50 is ≥ 6.00 on PTPN1 (i.e., PTP1B) and ≥ 6.00 at PTPN2 (i.e., TC-PTP).
